From patent US20050169978A1, “Wet-micro grinding” (priority 2004, published 2005)

Test: AmB content by high performance liquid chromatography during grinding
Assay type: physicochemical
Conditions: ball mill, 210 min overall grinding, HPLC
Method: Samples were taken at a grinding time of 90 minutes, 150 minutes, and 210 minutes, and were designated as LDAB90, LDAB150, and LDAB210, respectively. All samples were stored at 2-8° C. before analyzed. The particle size ranges of the samples were measured using N4 Plus Particle Size Analyzer and the AmB content was measured using high performance liquid chromatography.

Structure (SMILES): C[C@@H]1[C@H](O)[C@@H](C)/C=C/C=C/C=C/C=C/C=C/C=C/C=C/[C@H](O[C@@H]2O[C@H](C)[C@@H](O)[C@H](N)[C@@H]2O)C[C@@H]2O[C@](O)(C[C@@H](O)C[C@@H](O)[C@H](O)CC[C@@H](O)C[C@@H](O)CC(=O)O[C@H]1C)C[C@H](O)[C@H]2C(=O)O [AmB, amphotericin B]
- stability of AmB (AmB content) during grinding: remained stable during the whole period of the grinding process
